Reference: PubChem BioAssay (NCI)
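48-hour exposure; five concentrations; linearly interpolated endpoints. At the TGI there is no net growth.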

Legend:
Experiment in all cases: DTP human tumour cell line panel, 48 h
M14 melanoma = system: M14 melanoma
MDA-MB-231 breast = system: MDA-MB-231 breast
OVCAR-8 ovarian = system: OVCAR-8 ovarian
MALME-3M melanoma = system: MALME-3M melanoma
SN12C renal = system: SN12C renal
HCT-15 colon = system: HCT-15 colon
EKVX NSCLC = system: EKVX NSCLC
TK-10 renal = system: TK-10 renal
NCI/ADR-RES ovarian = system: NCI/ADR-RES ovarian
U251 CNS = system: U251 CNS
HS 578T breast = system: HS 578T breast
SK-MEL-2 melanoma = system: SK-MEL-2 melanoma

Compound	TGI (M14 melanoma)	TGI (MDA-MB-231 breast)	TGI (OVCAR-8 ovarian)	TGI (MALME-3M melanoma)	TGI (SN12C renal)	TGI (HCT-15 colon)	TGI (EKVX NSCLC)	TGI (TK-10 renal)	TGI (NCI/ADR-RES ovarian)	TGI (U251 CNS)	TGI (HS 578T breast)	TGI (SK-MEL-2 melanoma)
CC(C)=CCCC(C)CCOS(=O)C(F)(F)F (stereo unspecified)	6.59 µM	61.4 µM	> 100 µM	18.9 µM	41.7 µM	11.5 µM	30.2 µM	> 100 µM	30.4 µM	22.9 µM	5.31 µM	36.5 µM
O=C1CCc2ccc(O)c(c2)Oc2ccc(cc2)C(Sc2ccccc2)CCO1 (stereo unspecified)	32.1 µM	19.2 µM	37.3 µM	27.9 µM	29.7 µM	29.9 µM	28.5 µM	31.6 µM	31.4 µM	33 µM	36.2 µM	37.3 µM
CC(C)(Cl)C(Br)CCC(Br)(CCl)C(Cl)CBr (stereo unspecified)	> 10 µM	> 10 µM	> 10 µM	> 10 µM	> 10 µM	> 10 µM	> 10 µM	> 10 µM	> 10 µM	> 10 µM	> 10 µM	> 10 µM
COc1ccc(N=NC(=O)NC(CC(C)C)C(=O)NCC(=O)O)cc1 (stereo unspecified)	> 100 µM	> 100 µM	> 100 µM	> 100 µM	> 100 µM	> 100 µM	> 100 µM	> 100 µM	> 100 µM	> 100 µM	> 100 µM	> 100 µM
CCN(CC)CCN(C)c1ccc(CO)c2c1C(=O)c1ccccc1S2=O (stereo unspecified)	4.11 µM	7.7 µM	3.5 µM	27.2 µM	28.9 µM	12.9 µM	13.6 µM	32.3 µM	3.48 µM	3.27 µM	28.5 µM	40.1 µM
CC1=C(O)c2ccccc2C(=O)C1=O	> 100 µM	> 100 µM	> 100 µM	> 100 µM	> 100 µM	> 100 µM	> 100 µM	> 100 µM	> 100 µM	> 90.9 µM	> 100 µM	> 100 µM
O=C1CC(CC(=O)c2ccc(Br)cc2)C(=O)/C1=C(/O)c1ccc(Br)cc1 (stereo unspecified)	> 100 µM	> 100 µM	> 100 µM	> 100 µM	> 100 µM	> 100 µM	> 100 µM	> 100 µM	> 100 µM	> 100 µM	> 100 µM	> 100 µM
COc1ccccc1C(O)[C@@H]1C[C@@H]2[C@H]3CC[C@@](C)([C@@H]2O1)C3(C)C (stereo partly specified)	40.1 µM	34.4 µM	38.9 µM	30.2 µM	30.3 µM	57.7 µM	> 100 µM	50.7 µM	42 µM	32.1 µM	35.3 µM	34.3 µM
COc1ccc2c(c1)/C(=C\c1c(Cl)[nH]c3ccccc13)C(=O)N2	16.2 µM	26.5 µM	23.8 µM	19.2 µM	24.7 µM	37.2 µM	18.5 µM	23 µM	8.03 µM	13.2 µM	9.88 µM	16.1 µM
CC(=O)OCC(=O)OC[C@H](OCc1ccccc1)[C@@H]1[C@H](OC(C)=O)C(=O)N1Cc1ccccc1	> 100 µM	> 100 µM	> 100 µM	> 100 µM	> 100 µM	> 100 µM	> 100 µM	> 100 µM	> 100 µM	> 100 µM	> 100 µM	> 100 µM
CN(C)c1c(C2OC(CO)C(O)C2O)c(=O)c1=O (stereo unspecified)	> 100 µM	> 100 µM	> 100 µM	> 100 µM	> 100 µM	> 100 µM	> 100 µM	> 100 µM	> 100 µM	> 100 µM	> 100 µM	> 100 µM
O=C(CSCC(=O)N/N=C\c1cccc([N+](=O)[O-])c1)N/N=C\c1cccc([N+](=O)[O-])c1	> 100 µM	53.8 µM	> 100 µM	69.1 µM	> 100 µM	67.8 µM	> 100 µM	36.4 µM	60 µM	32.4 µM	> 100 µM	> 100 µM
Nc1ncnc2c1ncn2C1CCC(CP(=O)(O)O)C1 (stereo unspecified)	> 100 µM	> 100 µM	> 100 µM	> 100 µM	> 100 µM	> 100 µM	> 100 µM	> 100 µM	> 100 µM	> 100 µM	> 100 µM	> 100 µM
O=[S@]1c2ccc3ccccc3c2N[C@@H]2[C@H]1[C@H]1C=C[C@@H]2C1	> 100 µM	> 100 µM	> 100 µM	> 100 µM	> 100 µM	> 100 µM	> 100 µM	> 100 µM	99.7 µM	> 100 µM	> 100 µM	> 100 µM
COC(=O)c1cc(NC(=O)Cc2c[nH]c3ccccc23)cn1C	> 100 µM	> 100 µM	> 100 µM	> 100 µM	> 100 µM	> 100 µM	> 100 µM	> 100 µM	> 100 µM	> 100 µM	> 100 µM	> 100 µM
O=C1Nc2nccnc2C(=O)N2CCC[C@@H]12	> 100 µM	> 100 µM	> 100 µM	> 100 µM	> 100 µM	> 100 µM	> 100 µM	> 100 µM	> 100 µM	> 100 µM	> 100 µM	> 100 µM
CC(C)C(OC(=O)c1ccc(NCC2=CC(=O)C=CC2=O)cc1)C(C)C	19.7 µM	31.8 µM	12.9 µM	25.1 µM	35.8 µM	10.4 µM	29.1 µM	14.4 µM	19.8 µM	13.5 µM	16.7 µM	27.3 µM
CC(=O)NCC1OC2COC(c3ccccc3)OC2C(NC(=O)c2ccccc2)C1OC(=O)c1ccccc1 (stereo unspecified)	> 100 µM	> 100 µM	> 100 µM	> 100 µM	> 100 µM	> 100 µM	> 100 µM	> 100 µM	> 100 µM	> 100 µM	> 100 µM	> 100 µM
CC1=CC[C@@]2(C)CC[C@](O)(C(C)C)C2C(OC(=O)c2ccccc2)C1 (stereo partly specified)	37.8 µM	37.6 µM	37.5 µM	41.6 µM	44.9 µM	34.2 µM	32.3 µM	35.3 µM	41.5 µM	60 µM	47.9 µM	32.2 µM
O=C(/C=C/c1ccccc1)Nc1ccccc1SCCCCl	> 100 µM	74.5 µM	> 69.8 µM	> 100 µM	98.5 µM	> 100 µM	> 100 µM	> 100 µM	35.1 µM	> 82.8 µM	> 29.3 µM	> 100 µM
OC(CN(CCCl)CCCl)C(O)C(O)C(O)CN(CCCl)CCCl (stereo unspecified)	> 100 µM	> 100 µM	> 100 µM	> 100 µM	> 100 µM	> 100 µM	> 100 µM	> 100 µM	> 100 µM	> 100 µM	> 100 µM	> 100 µM
C=CC1CN(C(=O)OCC)N(C(=O)OCC)C1CCc1ccccc1 (stereo unspecified)	> 100 µM	> 100 µM	> 100 µM	> 100 µM	> 100 µM	> 100 µM	> 100 µM	> 100 µM	> 100 µM	> 100 µM	> 100 µM	> 100 µM
CC(C)CC(N)C(=O)Nc1ccc2ccccc2c1 (stereo unspecified)	> 100 µM	> 100 µM	> 100 µM	> 100 µM	> 100 µM	> 100 µM	> 100 µM	> 100 µM	> 100 µM	> 100 µM	> 100 µM	> 100 µM
CCOP(=O)(OCC)C(C(=O)OC)C(=O)C(=O)Nc1cccc(O)c1 (stereo unspecified)	> 100 µM	> 100 µM	> 100 µM	> 100 µM	> 100 µM	> 100 µM	> 100 µM	> 100 µM	> 100 µM	> 100 µM	> 100 µM	> 100 µM
[B-][P+](CC[P+]1([B-])[C@@H](C)[C@@H](O)[C@H](O)[C@@H]1C)(c1ccccc1)c1ccccc1OC (stereo partly specified)	34 µM	29.5 µM	31.5 µM	24.4 µM	26.2 µM	33.3 µM	25 µM	32.5 µM	35.9 µM	30.6 µM	22.6 µM	30.2 µM
COc1ccccc1/C=C/C1=NN(c2cccc(S(=O)(=O)O)c2)C2(C1)C(Cl)C(=O)N2c1nc2ccccc2s1 (stereo unspecified)	> 100 µM	> 100 µM	> 100 µM	> 100 µM	> 100 µM	> 100 µM	> 100 µM	> 100 µM	> 100 µM	> 100 µM	> 100 µM	> 100 µM
COc1ccc(OC)c2c1C=CC(Br)=CC2	0.822 µM	0.958 µM	> 1 µM	0.312 µM	> 1 µM	0.485 µM	> 1 µM	> 1 µM	> 1 µM	> 1 µM	> 1 µM	0.247 µM
Cc1c(N=C/C=C/c2ccccc2)c(=O)n(-c2ccccc2)n1C	38.9 µM	> 100 µM	54.4 µM	62.9 µM	43.4 µM	> 100 µM	81.8 µM	> 100 µM	79.6 µM	73.3 µM	69.8 µM	> 100 µM
